Test results: US8796268B2, “Heteroaryls and uses thereof” (Millennium Pharmaceuticals, Inc., priority 2010, dated 2014)
Read-outs that look alike come from different tables or passages of the source.

Tests used:
Format in all cases: biochemical
Human PI3K gamma = molecular target: T1, Human PI3K gamma (Homo sapiens, UniProt P48736); assay: Human PI3K gamma enzyme assay (HTRF)
T1 construct: His (N); host or cells: SF9 insect cells (baculovirus)
Excerpt: (§1) The catalytic subunits of PI3Ks are cloned into either pDEST8(p110 alpha) or pDEST10(p110beta, p110delta, and p110gamma) as N-terminal His tagged fusion proteins using the Gateway system (Invitrogen, catalog#11804-010 for pDEST8 and 11806-015 for pDEST10). The sequences are verified before recombinant protein expression using the Baculovirus Expression System with Gateway® Technology. The accession numbers for the subunits are as follows: • p110 alpha (GB:U79143) • p110beta (GB: S67334) • p110delta (GB: U86453) • p110gamma (GB: X83368) • The regulatory subunits of PI3Ks are cloned into pDEST8 as un-tagged protein using the Gateway system (Catalog#11804-010). The sequences are verified before recombinant protein expression using the Baculovirus Expression System with Gateway® Technology. The accession numbers for the subunits are as following: • p85 alpha (GB: BC030815) • p101(GB: AB028925) • VPS34 (accession number GB:BC033004) is cloned into pDEST20—Thombin as N-terminal GST tagged fusion proteins using the Gateway system (Invitrogen, catalog#11804-013). The sequences are verified before recombinant protein expression using the Baculovirus Expression System with Gateway® Technology.
(§2) For expression of the p110 complexes, the p85 (MOI of 4) is co-infected with p110 alpha, beta, and delta respectively (1MOI) in SF9 cells and harvested at 60 hours post co-infection. P110 gamma was infected at 1 MOI and harvested at 60 hours post infection.
(§3) For purification, PI3Ks are purified by Ni-NTA Agarose (Qiagen #30250) followed by Mono Q 10/100 GL (Ge Healthcare #17-5167-01). VPS34 is purified by Glutathione Sepharose 4 Fast Flow (GE Healthcare #17-5132-03) followed by HiTrap Q (GE Healthcare #17-1153-01).
(§4) 0.5 uL compounds in DMSO are added to wells of a 384 well microtitre plate (Corning 3575). At room temperature: 10 ul PI3K reaction buffer (50 mM Hepes, 5 mM DTT, 150 mM NaCl, 10 mM beta-glycerophosphate, 10 mM MgCl2, 0.25 mM sodium cholate and 0.001% CHAPS, pH 7.00) containing ATP (25 uM, Promega) is added followed immediately by 10 ul PI3K reaction buffer containing di-C8 P1(4,5)P2 (3.5 uM, CellSignals) and PI3Kalpha (0.4875 nM, Millennium Protein Sciences Group) and the mixture is incubated with shaking at room temperature for 30 minutes. Then 5 ul PI3K stop mix (50 mM Hepes, 5 mM DTT, 150 mM NaCl, 0.01% Tween-20, 15 mM EDTA and 25 nM biotin-PI(3,4,5)P3 (Echelon) is added to quench the reaction followed immediately by addition of 5 ul HTRF detection mix (50 mM Hepes, 5 mM DTT, 150 mM NaCl, 0.01% Tween-20, 40 mM KF, 1.0 nM GST:GRP-1 PH domain (Millennium Protein Sciences Group), 15 nM Streptavidin-XL (CisBio) and 0.375 nM anti-GST Eu++ antibody (CisBio) at pH 7.00). The plates are then incubated for 1 hour at room temperature with shaking and then read on a BMG PheraStar Plus reader.
(§5) 2) Human PI3K beta, delta and gamma isoforms are tested using the procedure described for PI3K alpha above but with the following changes: PI3K beta (5.25 nM), PI3K delta (0.75 nM) and PI3K gamma (5 nM). All isoforms supplied by Millennium Protein Science Group.
(§6) For the assay methods described above, test compound percent inhibition, at various concentrations, is calculated relative to control (DMSO and EDTA) treated samples. Compound concentration versus percent inhibition curves are fitted to generate IC50 values. One skilled in the art will appreciate that the values generated either as percentage inhibition at a single concentration or IC50 values are subject to experimental variation.

Human PI3K delta = molecular target: T2, Human PI3K delta (Homo sapiens, UniProt O00329); assay: Human PI3K delta enzyme assay (HTRF)
T2 construct: His (N); host or cells: SF9 insect cells (baculovirus)
Excerpt: as §1, §2, §3, §4, §5, §6

Human PI3K alpha = molecular target: T3, Human PI3K alpha (Homo sapiens, UniProt P42336); assay: Human PI3K alpha enzyme assay (HTRF)
T3 construct: His (N); host or cells: SF9 insect cells (baculovirus)

Human PI3K beta = molecular target: T4, Human PI3K beta (Homo sapiens, UniProt P42338); assay: Human PI3K beta enzyme assay (HTRF)
T4 construct: His (N); host or cells: SF9 insect cells (baculovirus)
How it was run: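 Compounds were mixed with 25 uM ATP, then with 3.5 uM di-C8 PI(4,5)P2 and His-tagged PI3K isoform (β 5.25 nM, δ 0.75 nM, γ 5 nM) at pH 7.00. After 30 min at room temperature, EDTA stopped the reaction and PIP3 was measured by HTRF over 1 h.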

[1] = concentration not given, b1389 states 1.0 μM for PI3K δ and γ, read-out: p110 gamma Percent Inhibition
[2] = concentration not given, b1389 states 1.0 μM for PI3K δ and γ, read-out: p110 delta Percent Inhibition
[3] = concentration not given, b1387 states 1.1 μM for PI3K α and β, read-out: p110 alpha Percent Inhibition
[4] = concentration not given, b1387 states 1.1 μM for PI3K α and β, read-out: p110 beta Percent Inhibition

T4 sequence (P42338 whole entry): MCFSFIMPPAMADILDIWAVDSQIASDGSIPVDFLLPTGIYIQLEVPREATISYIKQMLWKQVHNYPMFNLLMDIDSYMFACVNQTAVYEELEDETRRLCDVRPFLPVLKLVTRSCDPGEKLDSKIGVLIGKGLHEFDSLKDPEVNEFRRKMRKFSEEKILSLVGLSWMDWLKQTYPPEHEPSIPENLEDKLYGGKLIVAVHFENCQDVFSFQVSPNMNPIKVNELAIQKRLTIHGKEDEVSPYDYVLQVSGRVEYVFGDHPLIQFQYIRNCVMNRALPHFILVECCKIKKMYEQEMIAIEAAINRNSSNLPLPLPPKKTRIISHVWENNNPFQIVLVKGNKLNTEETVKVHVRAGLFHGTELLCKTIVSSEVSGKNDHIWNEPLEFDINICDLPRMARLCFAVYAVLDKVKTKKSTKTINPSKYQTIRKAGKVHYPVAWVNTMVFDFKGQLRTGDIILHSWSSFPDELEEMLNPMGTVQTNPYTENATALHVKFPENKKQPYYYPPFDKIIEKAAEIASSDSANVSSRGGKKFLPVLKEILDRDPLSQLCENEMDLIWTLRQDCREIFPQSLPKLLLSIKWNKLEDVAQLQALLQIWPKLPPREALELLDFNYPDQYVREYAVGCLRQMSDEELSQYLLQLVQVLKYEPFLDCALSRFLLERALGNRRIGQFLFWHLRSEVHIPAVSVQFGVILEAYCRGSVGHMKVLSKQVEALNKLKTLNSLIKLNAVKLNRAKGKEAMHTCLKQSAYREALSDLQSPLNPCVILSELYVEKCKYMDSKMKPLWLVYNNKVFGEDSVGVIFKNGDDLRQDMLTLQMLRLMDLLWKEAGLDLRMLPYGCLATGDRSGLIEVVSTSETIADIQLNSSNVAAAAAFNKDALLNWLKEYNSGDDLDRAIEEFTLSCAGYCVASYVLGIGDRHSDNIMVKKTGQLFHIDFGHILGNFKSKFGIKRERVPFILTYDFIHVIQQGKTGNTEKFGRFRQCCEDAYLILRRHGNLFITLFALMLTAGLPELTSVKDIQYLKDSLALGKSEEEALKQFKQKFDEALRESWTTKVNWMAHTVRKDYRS
T4 sequence (P27986 whole entry partner): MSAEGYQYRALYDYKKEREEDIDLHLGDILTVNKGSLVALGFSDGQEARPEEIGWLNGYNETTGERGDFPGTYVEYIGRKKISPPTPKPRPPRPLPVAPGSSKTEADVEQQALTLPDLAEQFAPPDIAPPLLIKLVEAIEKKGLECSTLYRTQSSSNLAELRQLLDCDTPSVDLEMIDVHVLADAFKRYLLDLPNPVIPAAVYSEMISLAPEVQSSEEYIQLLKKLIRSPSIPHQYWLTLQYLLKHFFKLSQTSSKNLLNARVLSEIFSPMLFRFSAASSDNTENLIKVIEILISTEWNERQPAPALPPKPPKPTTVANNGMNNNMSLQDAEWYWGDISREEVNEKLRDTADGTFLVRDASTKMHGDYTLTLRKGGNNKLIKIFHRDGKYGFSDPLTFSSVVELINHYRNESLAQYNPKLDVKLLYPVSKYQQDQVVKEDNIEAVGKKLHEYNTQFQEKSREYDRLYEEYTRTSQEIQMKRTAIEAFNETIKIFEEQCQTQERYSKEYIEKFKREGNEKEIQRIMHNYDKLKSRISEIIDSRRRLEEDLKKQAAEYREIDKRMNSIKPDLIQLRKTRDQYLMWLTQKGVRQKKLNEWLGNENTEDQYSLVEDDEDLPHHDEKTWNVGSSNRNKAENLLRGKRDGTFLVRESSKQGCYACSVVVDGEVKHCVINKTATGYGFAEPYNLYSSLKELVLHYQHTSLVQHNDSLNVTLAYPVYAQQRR
T3 sequence (P42336 whole entry): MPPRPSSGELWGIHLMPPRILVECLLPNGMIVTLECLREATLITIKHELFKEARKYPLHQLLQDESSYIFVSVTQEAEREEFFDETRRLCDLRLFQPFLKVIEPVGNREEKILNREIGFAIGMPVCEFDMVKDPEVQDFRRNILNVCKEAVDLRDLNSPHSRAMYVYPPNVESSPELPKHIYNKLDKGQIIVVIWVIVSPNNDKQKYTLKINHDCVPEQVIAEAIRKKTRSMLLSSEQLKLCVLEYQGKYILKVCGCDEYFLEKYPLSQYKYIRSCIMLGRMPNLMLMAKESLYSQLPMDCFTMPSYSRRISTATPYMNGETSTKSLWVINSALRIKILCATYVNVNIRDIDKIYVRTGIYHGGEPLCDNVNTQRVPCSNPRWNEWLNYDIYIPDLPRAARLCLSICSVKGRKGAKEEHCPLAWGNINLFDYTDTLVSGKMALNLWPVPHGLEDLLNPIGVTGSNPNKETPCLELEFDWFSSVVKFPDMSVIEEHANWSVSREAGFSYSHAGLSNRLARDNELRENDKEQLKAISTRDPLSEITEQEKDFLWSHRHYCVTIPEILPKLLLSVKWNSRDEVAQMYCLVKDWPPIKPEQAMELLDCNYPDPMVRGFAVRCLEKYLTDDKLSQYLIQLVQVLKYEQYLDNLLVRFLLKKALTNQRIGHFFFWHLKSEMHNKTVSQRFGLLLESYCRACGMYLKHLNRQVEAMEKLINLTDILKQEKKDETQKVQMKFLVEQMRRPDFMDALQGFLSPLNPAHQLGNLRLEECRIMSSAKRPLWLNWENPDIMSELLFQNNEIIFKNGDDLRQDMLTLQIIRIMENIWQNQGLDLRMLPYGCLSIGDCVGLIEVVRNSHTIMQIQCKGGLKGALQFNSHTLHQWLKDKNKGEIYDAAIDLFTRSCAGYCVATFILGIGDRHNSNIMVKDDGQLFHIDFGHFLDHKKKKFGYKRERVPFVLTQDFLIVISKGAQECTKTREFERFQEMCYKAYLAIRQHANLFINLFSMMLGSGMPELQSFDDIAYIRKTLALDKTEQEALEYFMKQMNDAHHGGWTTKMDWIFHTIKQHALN
T3 sequence (P27986 whole entry partner): as the sequence (P27986 whole entry partner) above
T1 sequence (P48736 whole entry): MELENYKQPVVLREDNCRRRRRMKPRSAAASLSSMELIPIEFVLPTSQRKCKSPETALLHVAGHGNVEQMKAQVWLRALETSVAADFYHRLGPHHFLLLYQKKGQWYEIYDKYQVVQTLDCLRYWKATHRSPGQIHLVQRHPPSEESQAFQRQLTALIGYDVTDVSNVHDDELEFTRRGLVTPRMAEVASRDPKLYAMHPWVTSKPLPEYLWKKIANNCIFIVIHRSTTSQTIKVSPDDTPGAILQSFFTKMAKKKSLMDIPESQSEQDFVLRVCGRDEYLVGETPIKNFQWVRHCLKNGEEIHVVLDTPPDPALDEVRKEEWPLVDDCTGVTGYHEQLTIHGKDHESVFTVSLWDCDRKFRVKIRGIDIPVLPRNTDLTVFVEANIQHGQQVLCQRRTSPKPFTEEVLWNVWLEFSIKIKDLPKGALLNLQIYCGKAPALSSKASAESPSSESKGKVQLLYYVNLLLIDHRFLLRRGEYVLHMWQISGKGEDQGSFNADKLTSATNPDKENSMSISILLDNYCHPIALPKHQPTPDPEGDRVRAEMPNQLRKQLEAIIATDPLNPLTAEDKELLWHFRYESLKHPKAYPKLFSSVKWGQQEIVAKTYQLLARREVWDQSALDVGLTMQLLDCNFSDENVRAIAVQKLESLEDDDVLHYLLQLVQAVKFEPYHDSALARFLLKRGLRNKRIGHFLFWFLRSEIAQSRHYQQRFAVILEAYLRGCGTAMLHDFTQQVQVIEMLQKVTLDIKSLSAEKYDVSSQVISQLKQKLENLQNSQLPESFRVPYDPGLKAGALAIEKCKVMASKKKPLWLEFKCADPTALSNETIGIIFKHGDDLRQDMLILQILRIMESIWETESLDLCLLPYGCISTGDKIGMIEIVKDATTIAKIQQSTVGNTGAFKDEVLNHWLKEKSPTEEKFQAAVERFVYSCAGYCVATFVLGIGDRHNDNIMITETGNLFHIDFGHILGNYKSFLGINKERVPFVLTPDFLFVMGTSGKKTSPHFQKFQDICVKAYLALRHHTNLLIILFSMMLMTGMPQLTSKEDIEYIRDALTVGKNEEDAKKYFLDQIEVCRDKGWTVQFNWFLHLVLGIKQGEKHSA
T2 sequence (O00329 whole entry): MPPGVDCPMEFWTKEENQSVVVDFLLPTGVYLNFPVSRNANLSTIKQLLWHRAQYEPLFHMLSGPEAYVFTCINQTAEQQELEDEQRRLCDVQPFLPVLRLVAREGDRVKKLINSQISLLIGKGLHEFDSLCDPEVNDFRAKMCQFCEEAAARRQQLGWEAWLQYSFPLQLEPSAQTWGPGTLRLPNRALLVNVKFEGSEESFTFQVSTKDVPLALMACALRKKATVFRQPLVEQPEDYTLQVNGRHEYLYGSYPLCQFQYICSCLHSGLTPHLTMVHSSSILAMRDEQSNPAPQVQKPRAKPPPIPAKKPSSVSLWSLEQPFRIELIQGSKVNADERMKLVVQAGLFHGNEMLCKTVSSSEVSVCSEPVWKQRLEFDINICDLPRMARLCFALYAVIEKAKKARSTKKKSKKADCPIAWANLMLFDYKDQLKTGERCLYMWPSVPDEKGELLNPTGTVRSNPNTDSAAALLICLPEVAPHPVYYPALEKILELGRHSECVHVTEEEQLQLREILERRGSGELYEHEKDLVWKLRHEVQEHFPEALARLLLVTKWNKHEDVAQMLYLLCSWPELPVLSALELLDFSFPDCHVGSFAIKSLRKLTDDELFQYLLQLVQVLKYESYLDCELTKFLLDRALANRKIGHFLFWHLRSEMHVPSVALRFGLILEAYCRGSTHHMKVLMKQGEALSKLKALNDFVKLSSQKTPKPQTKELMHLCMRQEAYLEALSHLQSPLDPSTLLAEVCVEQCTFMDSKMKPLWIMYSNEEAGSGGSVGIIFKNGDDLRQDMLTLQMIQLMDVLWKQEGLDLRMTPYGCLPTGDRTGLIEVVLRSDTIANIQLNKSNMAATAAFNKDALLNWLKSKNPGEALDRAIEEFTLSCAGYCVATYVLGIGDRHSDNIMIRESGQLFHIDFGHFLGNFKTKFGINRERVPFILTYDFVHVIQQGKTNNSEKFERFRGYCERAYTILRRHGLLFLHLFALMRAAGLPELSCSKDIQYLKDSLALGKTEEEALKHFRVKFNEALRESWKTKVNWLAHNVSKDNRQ
T2 sequence (P27986 whole entry partner): as the sequence (P27986 whole entry partner) above

Structure (SMILES)	inhibition at 1 µM (Human PI3K gamma; at a 1.0 μM concentration, read-out: PI3Kγ Percent Inhibition)	inhibition at 1 µM (Human PI3K delta; at a 1.0 μM concentration, read-out: PI3Kδ Percent Inhibition)	inhibition at 1.1 µM (Human PI3K alpha; at a 1.1 μM concentration, read-out: PI3Kα Percent Inhibition)	IC50 (Human PI3K alpha; read-out: PI3Kalpha IC50)	inhibition at 1.1 µM (Human PI3K beta; at a 1.1 μM concentration, read-out: PI3β Percent Inhibition)	IC50 (Human PI3K beta; read-out: PI3 Kbeta IC50)	inhibition at 1 µM (Human PI3K gamma; [1])	inhibition at 1 µM (Human PI3K delta; [2])	inhibition at 1.1 µM (Human PI3K alpha; [3])	inhibition at 1.1 µM (Human PI3K beta; [4])	p110 alpha Percent Inhibition (Human PI3K alpha; concentration not given, b1387 states 1.1 μM for PI3K α and β)
O=C(O)c1sc(N2CCOCC2)nc1Cc1ccc(Cl)cc1 [Compound 91, 4-(4-chlorobenzyl)-2-morpholinothiazole-5-carboxylic acid]	15.4%	84.8%	27%	> 1000 nM	105%	< 100 nM					
CC(=O)Nc1cc(-c2cc(C(NCC3CNC3)c3ccc(Cl)cc3)c(-c3nnc[nH]3)s2)ccn1 (stereo not drawn) [Compound 129]							32%	109%	83%	106%	
CC(=O)Nc1cc(-c2sc(-c3nnc[nH]3)c([S+]([O-])c3ccc(Cl)cc3)c2C#N)ccn1 (stereo not drawn) [Compound 131, N-{4-[4-[(4-chlorophenyl)sulfinyl]-3-cyano-5-(4H-1,2,4-triazol-3-yl)-2-thienyl]pyridin-2-yl}acetamide]							5%	80%	75%	78%	
CC(=O)Nc1cc(-c2cc(C(NCC(F)(F)F)c3ccc(Cl)cc3)c(-c3nnc[nH]3)s2)ccn1 (stereo not drawn) [Compound 135]							8%	99%	78%	87%	
CC(=O)Nc1cc(-c2cc(C(c3ccc(Cl)cc3)N3CCC(CN)C3)c(-c3nnc[nH]3)s2)ccn1 (stereo not drawn) [Compound 139]							24%	105%	77%	100%	
CC(=O)Nc1cc(-c2sc(-c3nnc[nH]3)c(S(=O)(=O)c3ccc(Cl)cc3)c2C#N)ccn1 [Compound 140, N-{4-[4-[(4-chlorophenyl)sulfonyl]-3-cyano-5-(4H-1,2,4-triazol-3-yl)-2-thienyl]pyridin-2-yl}acetamide]							62%	74%	76%	47%	
N#Cc1c(-c2ccncc2)sc(C(=O)O)c1Cc1ccc2ccccc2c1 [Compound 143]							62%	85%	58%	115%	

Next, values leading:

inhibition at 1 µM (Human PI3K gamma; at a 1.0 μM concentration, read-out: PI3Kγ Percent Inhibition)	inhibition at 1 µM (Human PI3K delta; at a 1.0 μM concentration, read-out: PI3Kδ Percent Inhibition)	inhibition at 1.1 µM (Human PI3K alpha; at a 1.1 μM concentration, read-out: PI3Kα Percent Inhibition)	IC50 (Human PI3K alpha; read-out: PI3Kalpha IC50)	inhibition at 1.1 µM (Human PI3K beta; at a 1.1 μM concentration, read-out: PI3β Percent Inhibition)	IC50 (Human PI3K beta; read-out: PI3 Kbeta IC50)	inhibition at 1 µM (Human PI3K gamma; [1])	inhibition at 1 µM (Human PI3K delta; [2])	inhibition at 1.1 µM (Human PI3K alpha; [3])	inhibition at 1.1 µM (Human PI3K beta; [4])	p110 alpha Percent Inhibition (Human PI3K alpha; concentration not given, b1387 states 1.1 μM for PI3K α and β)	Structure (SMILES)
						22%	62%	21%	73%		COc1ccc(C(O)c2cc(-c3ccncc3)sc2-c2nnc[nH]2)cc1F (stereo not drawn) [Compound 130]
						53%	77%	45%	103%		OC(c1cnc2ccccc2c1)c1cc(-c2ccncc2)sc1-c1nnc[nH]1 (stereo not drawn) [Compound 132]
						26%	74%	84%	101%		OC(c1nc(-c2ccccc2)cs1)c1cc(-c2ccncc2)sc1-c1nnc[nH]1 (stereo not drawn) [Compound 133]
						8%	44%	21%	72%		OC(c1ccc2c(c1)OC(F)(F)O2)c1cc(-c2ccncc2)sc1-c1nnc[nH]1 (stereo not drawn) [Compound 134]
						67%	109%		110%	80%	OC(c1cc2ccccc2cc1F)c1cc(-c2ccncc2)sc1-c1nnc[nH]1 (stereo not drawn) [Compound 136]
						12%	30%	12%	54%		Clc1cccc(Cc2nc(-c3ccncc3)sc2-c2nnc[nH]2)c1 [Compound 137]
						13%	69%	43%	86%		Cc1c(F)cccc1C(O)c1cc(-c2ccncc2)sc1-c1nnc[nH]1 (stereo not drawn) [Compound 138]
						15%	66%	17%	89%		Cc1ccc(C(O)c2cc(-c3ccncc3)sc2-c2nnc[nH]2)c(C)c1 (stereo not drawn) [Compound 141]
						7%	47%	15%	67%		OC(c1ccc(C(F)(F)F)cc1)c1cc(-c2ccncc2)sc1-c1nnc[nH]1 (stereo not drawn) [Compound 142]
